From patent US20100087534A1, “Use of a Photosensitizing Agent in the Treatment or Prevention of an Inflammation-Associated Disorder in the Gastrointestinal Tract of a Mammal” (priority 2005, published 2010)

Legend:
iNOS = test: Expression index of iNOS mRNA in illuminated colon, quantitative real-time PCR; assay type: in vivo, BALB/c mice; settings: high dose PDT: 50 J/cm^2, 60 mg δ-ALA; 74 h; unmanipulated mice index=1
Text: The third portion was used for measuring the expression of the molecules involved in immune and inflammatory phenomenons in the colonic mucosa (cytokines, chemokines). For RNA extraction this portion was conserved in RNA-later solution (Ambion Inc. Austin, USA) until processing. RNA was extracted from the tissues using a Rneasy Mini kit (Qiagen, Hombrechtikon, Switzerland). RNA samples were submitted to a second or third DNAse treatment in order to get rid of all traces of genomic DNA. Quality of the RNA samples was tested on agarose gels and absence of genomic DNA was tested by PCR using primers specific for a house keeping gene, glyceraldehydes-3-phosphate-dehydrogenase (GAPDH). […] Quantification of reverse transcripted messenger RNA for GAPDH, the inducible nitric oxide synthetase (iNOS), interferon-gamma (IFN-γ), interleukin-1 receptor antagonist (IL1-Ra), tumor necrosis factor alpha (TNF-α), interleukin 6 (IL-6), tumor growth factor beta (TGF-13) and interleukin10 (IL-10) was performed by quantitative real-time PCR in a BioRad Real-time PCR iCycler using specific pairs of primers and the green fluorescence dye SYBR—Green®. GAPDH was used to normalize quantifications within each individual sample (normalization of the number of mRNA copies for the gene of interest/1 million mRNA copies of the GAPDH gene of the investigated mouse). […]

IL-1Ra = test: Expression index of IL-1Ra mRNA in illuminated colon, quantitative real-time PCR; assay type: in vivo, BALB/c mice
Text: The third portion was used for measuring the expression of the molecules involved in immune and inflammatory phenomenons in the colonic mucosa (cytokines, chemokines). For RNA extraction this portion was conserved in RNA-later solution (Ambion Inc. Austin, USA) until processing. RNA was extracted from the tissues using a Rneasy Mini kit (Qiagen, Hombrechtikon, Switzerland). RNA samples were submitted to a second or third DNAse treatment in order to get rid of all traces of genomic DNA. Quality of the RNA samples was tested on agarose gels and absence of genomic DNA was tested by PCR using primers specific for a house keeping gene, glyceraldehydes-3-phosphate-dehydrogenase (GAPDH). RNA preparations were then submitted to reverse transcription using the ThermoScript™ RT-PCR system (Invitrogen, Basel, Switzerland) using an Oligo-dT as primer. Quantification of reverse transcripted messenger RNA for GAPDH, the inducible nitric oxide synthetase (iNOS), interferon-gamma (IFN-γ), interleukin-1 receptor antagonist (IL1-Ra), tumor necrosis factor alpha (TNF-α), interleukin 6 (IL-6), tumor growth factor beta (TGF-13) and interleukin10 (IL-10) was performed by quantitative real-time PCR in a BioRad Real-time PCR iCycler using specific pairs of primers and the green fluorescence dye SYBR—Green®. GAPDH was used to normalize quantifications within each individual sample (normalization of the number of mRNA copies for the gene of interest/1 million mRNA copies of the GAPDH gene of the investigated mouse). Expression of each gene of interest was finally calculated as an expression index (normalized number of mRNA copies of each manipulated mice/normalized number of mRNA copies of the unmanipulated mice) and the results are given as mean values of the expression index (unmanipulated mean mice index=1). Furthermore one kidney and a part of the liver were collected for pathological analysis to exclude hepato- or nephrotoxicity.

IFN-γ = IFN-γ expression index in colon of transfer colitis SCID mice (FIG. 2); assay type: in vivo
Procedure: (§1) FIG. 2 represents the expression indices of the proinflammatory markers IFN-γ and TNF-α in untransfered mice, disease control group and PDT group (15 mg/kg of δ-ALA, 10 J/cm^2).
(§2) Typically, the expression index of each pro-inflammatory marker of interest is calculated (normalized number of mRNA copies of each manipulated mice/normalized number of mRNA copies of the unmanipulated mice). The results are given as mean values of the expression index (unmanipulated mean mice index=1). […]
(§3) The third portion was used for measuring the expression of the molecules involved in immune and inflammatory phenomenons in the colonic mucosa (cytokines, chemokines). […] Quantification of reverse transcripted messenger RNA for GAPDH, the inducible nitric oxide synthetase (iNOS), interferon-gamma (IFN-γ), interleukin-1 receptor antagonist (IL1-Ra), tumor necrosis factor alpha (TNF-α), interleukin 6 (IL-6), tumor growth factor beta (TGF-13) and interleukin10 (IL-10) was performed by quantitative real-time PCR in a BioRad Real-time PCR iCycler using specific pairs of primers and the green fluorescence dye SYBR—Green®. GAPDH was used to normalize quantifications within each individual sample (normalization of the number of mRNA copies for the gene of interest/1 million mRNA copies of the GAPDH gene of the investigated mouse). […]

TNF-α = TNF-α expression index in colon of transfer colitis SCID mice (FIG. 2); assay type: in vivo
Procedure: as §1, §2, §3

[1] = test system: SCID mice with TH1-mediated Crohn-like colitis after transfer of CD4+CD45RBhigh T-cells; test: Endoscopic index of colitis severity (EICS) after low dose PDT in transfer colitis (Example 2); assay type: in vivo
Text: Since in example 1 only 55% of the mice developed colitis, Applicants have injected 4×10^5 cells CD4+CD45RB^high intravenously into 9.5 weeks old SCID mice in the following second set of SCID mice.
Evolution of colitis in SCID mice was monitored every week by colonoscopic investigation after induction. Mice with moderately inflamed colons [endoscopic index of colitis severity (EICS) index 4-8] or marked inflamed colons (EICS 9-13) were randomly assigned to either a <<low dose>> PDT group or no treatment group (disease control group). Unmanipulated age-matched SCID mice served as negative controls.
PDT was performed with a photosensitizing agent (δ-ALA) dose of 15 mg/kg, administered 3 hours before the illumination with the energy dose of 10 J/cm^2 per gastrointestinal tract tissue.
The illumination time was 100 s, the wavelength 635 nm.
After completing the experiments with 15 mg/kg δ-ALA and 10 J/cm^2, the Applicants evaluated whether an energy illumination energy of 20 or 2 J/cm^2 would provide an equivalent or better effect on colitis. Furthermore, the Applicants sought to determine whether PDT treatment could be repeated at short term and whether this re-treatment would have a beneficial effect on colitis too. To this end, the Applicants performed another set of experiment with marked inflamed mice in which half of the PDT treated mice (15 mg/kg S-ALA and 10 J/cm^2) were subjected to a second identical low dose PDT treatment at the time of the re-apparition of colitis symptoms, namely one week after the first PDT treatment.
Mice were monitored by colonoscopy at day 3 and weeks 1, 2, 3 and 4 post PDT treatment. In addition to parameters investigated in example 1, CD4 immunostaining and apoptosis detection were performed.
All statistical analyses were performed using the Prism version 4.0c software from GraphPad Software (San Diego, Calif.). The unpaired two-tail Mann-Whitney test was usually applied, unless the numbers of mice in test groups were too small to perform this test (<5 mice in both test groups) and the unpaired two-tail t test was thus applied. Significance limit was set at a 2-tailed P value≦0.05.

[2] = 15 mg/kg δ-ALA, 10 J/cm^2, versus disease control group (FIG. 2)
[3] = 10 J/cm^2, 15 mg/kg δ-ALA, compared to "colonoscopy" mice, deduced from FIG. 2

NCC(=O)CCC(=O)O [δ-ALA, 5-aminolevulinic acid]
expression index iNOS (iNOS): 27.78±10.47 | expression index IL-1Ra (IL-1Ra; high dose PDT: 50 J/cm^2, 60 mg δ-ALA, 74 h, unmanipulated mice index=1): 4.54±1.21 | expression index IL-1Ra (IL-1Ra; low dose PDT 15 mg/kg δ-ALA, 10 J/cm2): 0.94±0.08 | expression index IL-1Ra (IL-1Ra; low dose PDT 5J/cm2, 15 mg/kg δ-ALA): 1.14±0.11 | expression index IFN-γ after low dose PDT (IFN-γ; [2]): decreased significantly | decrease of the expression of pro-inflammatory marker IFN-γ (IFN-γ; [3]): 73% | expression index TNF-α after low dose PDT (TNF-α; [2]): decreased significantly | decrease of the expression of pro-inflammatory marker TNF-α (TNF-α; [3]): 63% | EICS ([1]; marked inflamed mice (mean EICS 10.4±0.2 before), 15 mg/kg δ-ALA, 10 J/cm^2, 3 days after PDT, disease control 10.7±0.6, P<0.0001): 7.3±0.3 | EICS ([1]; marked inflamed mice, 15 mg/kg δ-ALA, 2 J/cm^2, 3 days after PDT, disease control 10.7±0.6, P=0.0271): 8.4±0.5 | EICS versus disease control group ([1]; marked inflamed mice, 15 mg/kg δ-ALA, 10 J/cm^2, up to 4 weeks after PDT): remained significantly lower than the one of the disease control group mice | effect on colitis (EICS) versus disease control group ([1]; marked inflamed mice, 15 mg/kg δ-ALA, 20 J/cm^2, any time point): did not induce any significant beneficial effect | EICS ([1]; marked inflamed mice, one single PDT treatment, time point 1 week after second PDT of comparison group): 9.8±0.5 | EICS ([1]; marked inflamed mice, one single PDT treatment, time point 2 weeks after second PDT of comparison group): 9.8±0.6 | EICS ([1]; marked inflamed mice, two PDT treatments (15 mg/kg, 10 J/cm^2) one week apart, 1 week after second PDT): 7.3±0.9 | EICS ([1]; marked inflamed mice, two PDT treatments one week apart, 2 weeks after second PDT): 7.33±0.3 | EICS versus disease control group ([1]; moderately inflamed mice, since week 2 post PDT): appeared no more significantly different from the one of the disease control group
